Source: patent US20240408096A1, “DOSING REGIMENS FOR ORAL ALK2 KINASE INHIBITORS” (BioCryst Pharmaceuticals, Inc., priority 2020, published 2024)
Changes are numbered by the printed parent chain.

Legend:
[1] = metabolism by liver S9 fraction; assay type: in vitro ADME; settings: animal and human liver S9 fraction
[2] = Phase 1 Part 1 (SAD) urinary PK; assay type: in vivo, human; settings: for CLR,0-6 / CLR,6-12 / CLR,12-24 / Cum % excreted0-72 / CumAe0-72 / CLR,24-48: Part 1 SAD, geometric mean (CV%); for CumAe0-72: urine 0 to 72 hours
Procedure: (§1) Four sequential SAD cohorts were dosed.
Urine samples were collected according to the schedule in Tables 4 and 5 for Parts 1 and 2, respectively. The pre-dose sample on Day 1 was collected any time in the 2 hours prior to dosing. A 30-minute window was allowed around collection intervals.

CYP3A4 = CYP3A4 (Homo sapiens, UniProt P08684); assay: CYP inhibition in vitro; assay type: in vitro ADME
[3] = rat micronucleus-comet genotoxicity assays; settings: in vivo
[4] = tested on: G-protein coupled receptor (GPCRs) related kinases; assay: off-target screening study
CYP2B6 = biological target: T1, CYP2B6 (Homo sapiens, UniProt P20813); assay: CYP inhibition in vitro; assay type: in vitro ADME
T1 sequence (P20813 1-491): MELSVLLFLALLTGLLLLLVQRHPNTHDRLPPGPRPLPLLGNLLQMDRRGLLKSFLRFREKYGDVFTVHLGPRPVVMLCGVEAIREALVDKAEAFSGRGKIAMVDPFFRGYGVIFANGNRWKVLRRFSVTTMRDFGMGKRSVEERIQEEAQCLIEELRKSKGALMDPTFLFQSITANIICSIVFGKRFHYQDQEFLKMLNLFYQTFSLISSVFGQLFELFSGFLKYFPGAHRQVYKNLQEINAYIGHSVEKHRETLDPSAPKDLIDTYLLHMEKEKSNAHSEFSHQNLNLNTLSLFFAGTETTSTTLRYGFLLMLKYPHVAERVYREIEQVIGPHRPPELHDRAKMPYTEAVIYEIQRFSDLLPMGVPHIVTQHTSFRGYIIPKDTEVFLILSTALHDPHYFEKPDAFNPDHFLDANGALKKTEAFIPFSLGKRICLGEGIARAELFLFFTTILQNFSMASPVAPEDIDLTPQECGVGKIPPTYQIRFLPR

[5] = Phase 1 Part 1 (SAD) safety and tolerability; assay type: in vivo, human; settings: healthy subjects
Procedure: The primary outcome measure of Part 1 and Part 2 will be: (1) measurement of the safety and tolerability by subject incidence of graded treatment-emergent adverse events (TEAEs), laboratory abnormalities, and changes to vital signs, ECGs, cardiac telemetry, and physical examination findings.
as §1
For each cohort of Part 1, the daily dose of study drug was administered as a single dose (1 time daily or QD). In Part 1 of the study, following a screening period to determine eligibility, subjects in each cohort entered the Phase 1 clinical research unit (CRU) on the afternoon of Day −1. Study eligibility was re-confirmed upon admission to the CRU, and subjects remained in the CRU overnight prior to dosing on Day 1. Following Day 1, subjects remained in the CRU for an additional 72 hours post-dose (i.e., discharge on Day 4) to enable collection of plasma and urine for PK samples and other study assessments. Subjects were discharged from the CRU following plasma PK sample collection on Day 4 and returned on Day 16 (+2 days) for a final follow-up visit.

wtALK2 = biological target: T2, wtALK2 (Homo sapiens, UniProt Q04771); assay: wtALK2 functional assays; assay type: biochemical; settings: several functional assays; read-out: wtALK2 activity potency (IC50)
T2 sequence (Q04771 21-509): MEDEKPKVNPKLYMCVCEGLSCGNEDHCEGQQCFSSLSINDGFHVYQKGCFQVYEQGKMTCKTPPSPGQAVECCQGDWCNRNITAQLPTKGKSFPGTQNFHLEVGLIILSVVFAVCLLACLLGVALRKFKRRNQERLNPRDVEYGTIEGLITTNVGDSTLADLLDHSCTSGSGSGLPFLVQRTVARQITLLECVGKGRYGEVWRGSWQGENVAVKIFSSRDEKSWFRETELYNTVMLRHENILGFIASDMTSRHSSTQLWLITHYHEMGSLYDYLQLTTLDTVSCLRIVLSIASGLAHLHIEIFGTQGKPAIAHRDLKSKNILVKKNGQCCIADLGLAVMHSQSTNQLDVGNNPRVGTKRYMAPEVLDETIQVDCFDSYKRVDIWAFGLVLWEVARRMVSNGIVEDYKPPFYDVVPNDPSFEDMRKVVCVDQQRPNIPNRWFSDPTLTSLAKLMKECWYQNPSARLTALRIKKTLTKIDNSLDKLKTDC

[6] = plasma protein binding, rat; assay type: in vitro ADME; settings: in vitro
ALK2(R206H) = biological target: T3, ALK2(R206H) (Homo sapiens, UniProt Q04771, R206H); assay: ALK2(R206H) functional assays; assay type: biochemical; settings: several functional assays; read-out: ALK2(R206H) activity potency (IC50)
T3 sequence (Q04771 21-509 R206H): T2 sequence (Q04771 21-509) with R186H

HO bone formation = assay: mouse model of HO bone formation; assay type: in vivo; settings: dosing for 21 days

Sequence of CYP3A4 (P08684 whole entry): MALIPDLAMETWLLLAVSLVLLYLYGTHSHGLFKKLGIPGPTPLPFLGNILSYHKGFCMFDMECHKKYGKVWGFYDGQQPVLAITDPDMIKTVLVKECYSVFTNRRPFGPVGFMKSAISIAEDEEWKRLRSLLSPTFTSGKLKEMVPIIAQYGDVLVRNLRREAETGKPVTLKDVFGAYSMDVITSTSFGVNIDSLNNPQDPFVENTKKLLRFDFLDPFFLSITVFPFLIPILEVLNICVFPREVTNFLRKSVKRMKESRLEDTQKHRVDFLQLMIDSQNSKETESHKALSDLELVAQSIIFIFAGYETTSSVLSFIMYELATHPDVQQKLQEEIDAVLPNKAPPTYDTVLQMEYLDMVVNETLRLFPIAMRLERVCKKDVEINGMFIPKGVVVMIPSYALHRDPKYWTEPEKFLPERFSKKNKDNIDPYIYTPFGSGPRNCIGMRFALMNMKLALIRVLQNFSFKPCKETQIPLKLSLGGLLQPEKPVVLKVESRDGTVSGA

cumulative amount of parent compound excreted in the urine ([2]; Part 1, single doses 5 to 25 mg, all cohorts): less than 0.3 % of the administered dose
CLR,0-6 ([2]; 5 mg): 23.63 (28.3) mL/h
CLR,6-12 ([2]; 5 mg): 14.61 (92.8) mL/h
CLR,12-24 ([2]; 5 mg): 8.576 (263,3) mL/h
Cum % excreted0-72 ([2]; 5 mg): 0.2668 (43.6) %
CumAe0-72 ([2]; 5 mg): 13,340 (43.6) ng
CLR,0-6 ([2]; 10 mg): 9.499 (79.6) mL/h
CLR,6-12 ([2]; 10 mg): 6.137 (93.2) mL/h
CLR,12-24 ([2]; 10 mg): 4.759 (56,5) mL/h
Cum % excreted0-72 ([2]; 10 mg): 0.1206 (84.0) %
CumAe0-72 ([2]; 10 mg): 12,060 (84.0) ng
CLR,0-6 ([2]; 15 mg fasted): 12.84 (56.2) mL/h
CLR,6-12 ([2]; 15 mg fasted): 6.793 (98.8) mL/h
CLR,12-24 ([2]; 15 mg fasted): 8.008 (114.1) mL/h
CLR,24-48 ([2]; 15 mg fasted): 7.674 (80.2) mL/h
Cum % excreted0-72 ([2]; 15 mg fasted): 0.1409 (79.5) %
CumAe0-72 ([2]; 15 mg fasted): 21,130 (79.5) ng
CLR,0-6 ([2]; 25 mg): 15.98 (99.4) mL/h
CLR,6-12 ([2]; 25 mg): 10.56 (138.2) mL/h
CLR,12-24 ([2]; 25 mg): 9.785 (145.0) mL/h
CLR,24-48 ([2]; 25 mg): 10.44 (87.9) mL/h
Cum % excreted0-72 ([2]; 25 mg): 0.1928 (87.0) %
CumAe0-72 ([2]; 25 mg): 48,210 (87.0) ng
CYP3A4 inhibition (CYP3A4): is an inhibitor
off-target effects [4]: minimal off-target effects
CYP2B6 inhibition (CYP2B6): not an inhibitor
IC50 (wtALK2): < 100 nM
plasma protein binding [6]: ≥ 99.9%
IC50 (ALK2(R206H)): < 100 nM
Compound: COc1cc(-n2cnc(Nc3nc(N4CCC[C@H]4C(N)=O)nc4sccc34)c2)cc(OC)c1OC.O=C(O)CC(O)(CC(=O)O)C(=O)O [Compound A]
metabolism / human-specific metabolites [1]: metabolized by animal and human liver S9 fraction with no apparent human-specific metabolites
micronucleus-comet genotoxicity [3]: negative
safety and tolerability ([5]; Part 1, single ascending oral doses 5 mg to 25 mg): safe and generally well tolerated
grade 3 or 4 adverse events ([5]; Part 1, single oral doses 5 mg to 25 mg): no grade 3 or 4 adverse events
new HO bone formation (HO bone formation): significant reduction in new HO bone formation
